# Measurements: patent publication US20080026079A1 (priority 2006, published 2008)
# Several values for one entry are separate records, joined by “and”; a condition that tells them apart may be missing. Identical values can stand only once. Entries after “also recorded” stand apart in the source; their conditions may differ.
# Tests used:
# [1] = test system: canine intestinal inflammation; assay: Canine inflammatory bowel disease activity index (CIBDAI) around Adriamycin dosing; assay type: in vivo, dog; set-up: key to CIBDAI C. Vomiting: 0 = none; 1 = mild (1 episode/week); 2 = moderate (2-3 episodes/week); 3 = severe (>3 episodes/week); key to CIBDAI A. Attitude/activity / CIBDAI B. Appetite / CIBDAI E. Stool frequency: 0 = normal; 1 = slightly decreased; 2 = moderately decreased; 3 = severely decreased
# Description: (§1) The criteria used for the scoring in the table is found at the bottom of the table. Dogs in the study were given a “palliative” Adriamycin dosage (30 mg/m2, IV every 14 days). Symptoms related to intestinal inflammation are expected in fewer than 10% of treated dogs.
# fecal α-1PI = assay: Fecal alpha(1)-proteinase inhibitor ELISA following Adriamycin; assay type: in vivo, dog;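 on m α-1PI - pd. 1: unit µg per g of feces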;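 on m α-1PI - pd. 2: unit µg per g of feces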
# Description: Fecal alpha(1)-proteinase inhibitor (α-1PI) clearance is a reliable, noninvasive marker for protein-losing enteropathy in animals and canines. Furthermore, the canine gut is a good model for the human gut, so results of testing on dogs can be considered relevant to humans. In this example, a number of dogs were tested. Fecal samples were collected daily for 3 days following each Adriamycin administration. An ELISA was used to measure α-1PI concentrations in fecal extracts.
# Fecal samples were available for analysis following both chemotherapy treatments from 13 dogs.
# [2] = test system: hepatic demethylation capacity; conditions: dog, in vivo
# Description: A ^13C-aminopyrine demethylation blood test was performed in 16 dogs before and after undergoing chemotherapy with doxorubicin for malignant neoplasia. A baseline blood sample of 1 ml was taken, followed by intravenous injection of 2 mg/kg ^13C-aminopyrine and collection of another 1 ml blood sample at 45 minutes after ^13C-aminopyrine administration. Blood samples were immediately placed into vacutainer tubes containing 2 ml of 6M hydrochloric acid and the percent dose of the ^13C administered as ^13C-aminopyrine was determined based on fractional mass spectrometry. […] A p-value <0.05 was considered statistically significant.
# [3] = test system: dogs with malignant tumors; conditions: cited from earlier work
# [4] = test system: canine intestinal inflammation; assay: Canine inflammatory bowel disease activity index (CIBDAI) around Adriamycin dosing; assay type: in vivo; set-up: key: 0 = normal; 1 = slightly decreased; 2 = moderately decreased; 3 = severely decreased; conditions: one line per dog
# Description: as §1
# [5] = test system: canine intestinal inflammation; assay: as above; assay type: in vivo; set-up: key: 0 = normal; 1 = slightly soft faeces or faecal blood, mucus or both; 2 = very soft faeces; 3 = watery diarrhea; conditions: one line per dog
# Description: as §1
# [6] = test system: irinotecan-induced diarrhea; conditions: irinotecan weekly 125 mg/m^2; strict adherence to high-dose loperamide; fell from 56; cited from earlier work
# [7] = test system: chemotherapy-induced diarrhea; conditions: 41 5-FU-treated patients; standard-dose loperamide; cited from earlier work
# [8] = test system: diarrhea following chemotherapy in dogs; conditions: dog, in vivo
# Description: 32 dogs presented with diarrhea following the administration of a chemotherapy agent such as doxorubicin, cytoxan, vincristine, lomustine, and others for a minimum period of 48 hours. CASAD in 500 mg tables was given orally to the cancer-treated dogs four times a day (q.i.d.). Other pharmaceutical agents or medications, as shown below, were also administered to certain dogs according to Best Clinical Practices, using usual, customary dosing. To the extent permitted by scheduling, CASAD and the other medication were given concurrently.
# [9] = test system: pregnant Sprague-Dawley rats; assay: Dietary clay toxicity and trace metal bioavailability in pregnant rats; conditions: rat, in vivo
# Description: In animal studies with calcium montmorillonite clay, no adverse effects from clay treatment, at levels up to 2.0% (w/w) in the diet, have been reported. In recent studies in rodents, calcium montmorillonite clay were evaluated for potential toxicity and trace metal bioavailability in pregnant Sprague-Dawley rats throughout the period of gestation following high level exposure in the diet (2.0% w/w). Clays were supplemented in the balanced diet of Sprague-Dawley rats during pregnancy at a level of 2.0% (w/w). Evaluations of toxicity were performed on gestation day 16 and included maternal body weights, maternal feed intakes, litter weights, in addition to embryonic resorptions. Liver and, kidneys, tibia, brain, uterus, pooled placental, and pooled embryonic mass were collected and weighed. Tissue were lyophilized and neutron activation analysis (NAA) was then performed. Elements considered by NAA included: Al, Br, Ca, Ce, Co, Cr, Cs, Cu, Dy, Eu, Fe, Hf, K, La, Lu, Mg, Mn, Na, Nd, Ni, Rb, S, Sb, Sc, Se, Sm, Sr, Ta, Th, Te, Th, Ti, Tl, U, V, Yb, Zn, and Zr. Inductively coupled plasma-mass spectroscopy further confined that Al was below detection limits (0.5 ppm) in the brain, indicating no significant bioavailability of this metal from clay interactions in the GI tract. […]
compound,measurement,setting,value
"Cc1ncc([N+](=O)[O-])n1CCO [Flagyl, metronidazole]",time to resolution of diarrhea,"[1]; Dog 2, diarrhea started Day 21 after Adria 2","with Flagyl, resolved in 2 days"
COc1cccc2c1C(=O)c1c(O)c3c(c(O)c1C2=O)C[C@@](O)(C(=O)CO)C[C@@H]3O[C@H]1C[C@H](N)[C@H](O)[C@H](C)O1 [doxorubicin],"fecal α-1PI concentrations, comparison of the two treatments",fecal α-1PI; 13 dogs,not significantly different
same,m α-1PI - pd. 1,"fecal α-1PI; one line per dog, fecal samples 3 days following first Adriamycin administration",0 micro g/g of feces (5×) and 9.38 micro g/g of feces and 1.38 micro g/g of feces and 2.83 micro g/g of feces and 0.7 micro g/g of feces and 4.2 micro g/g of feces and 6.85 micro g/g of feces and 0.47 micro g/g of feces and 13.23 micro g/g of feces
same,m α-1PI - pd. 2,"fecal α-1PI; one line per dog, fecal samples 3 days following second Adriamycin administration",21.29 micro g/g of feces and 0 micro g/g of feces (3×) and 3.76 micro g/g of feces and 1.34 micro g/g of feces and 1.7 micro g/g of feces and 0.85 micro g/g of feces and 0.53 micro g/g of feces and 14.26 micro g/g of feces and 4.57 micro g/g of feces and 1.83 micro g/g of feces and 1.3 micro g/g of feces
same,CIBDAI A. Attitude/activity,"[1]; Post Adria 1, 30 mg/m2 IV every 14 days, one line per dog",A.0 (11×) and A.1 (2×)
same,CIBDAI B. Appetite,"[1]; Post Adria 1, one line per dog",B.0 (11×) and B.2 (2×)
same,CIBDAI C. Vomiting,"[1]; Post Adria 1, one line per dog",C.1 (1 = mild (1 episode/week)) (2×) and C.0 (9×) and C.2 (2 = moderate (2-3 episodes/week)) (2×)
same,CIBDAI E. Stool frequency,"[1]; Post Adria 1, one line per dog",E.0 (11×) and E.2 (2 = moderately increased (4-5 times/day)) and E.1 (1 = slightly increased (2-3 times/day))
same,CIBDAI A. Attitude/activity,"[1]; Post Adria 2, one line per dog",A.0 (10×) and A.3 and A.2 and A.1
same,CIBDAI B. Appetite,"[1]; Post Adria 2, one line per dog",B.0 (9×) and B.2 (2×) and B.3 and B.1
same,CIBDAI C. Vomiting,"[1]; Post Adria 2, one line per dog",C.0 (11×) and C.1 (1 = mild (1 episode/week)) (2×)
same,CIBDAI E. Stool frequency,"[1]; Post Adria 2, one line per dog",E.2 (2 = moderately increased (4-5 times/day)) (2×) and E.0 (11×)
same,CIBDAI A. Attitude/activity,"[1]; Pre Adria 2, one line per dog",A.0
same,CIBDAI B. Appetite,"[1]; Pre Adria 2, one line per dog",B.0 (12×) and B.1
same,CIBDAI C. Vomiting,"[1]; Pre Adria 2, one line per dog",C.0
same,CIBDAI E. Stool frequency,"[1]; Pre Adria 2, one line per dog",E.0
same,CIBDAI F. Weight loss,"[1]; Pre Adria 2, one line per dog",F.0
same,observations noted per dog after Adriamycin,"[1]; notes under the dog's scores, listed as Adria","Day 21 - Lethargic for 1 week after; also recorded: Day 21 - Owner reported dumpty for 3 days post Adria #2; also recorded: Day 21 - Diarrhea started, treated; also recorded: Patient was euthanized 5 days after initial; also recorded: Day 7 - Diarrhea,; also recorded: Day 21 - Diarrhea for 3 days,; also recorded: Adria #2 delayed due to vomiting, diarrhea,"
same,mean ±SD clearance at 45 minutes after 13C-aminopyrine administration,[2],0.09562±0.0074
same,dogs that died as a direct result of doxorubicin-induced toxicosis,"[3]; 185 dogs, 30 mg/m^2 iv once or twice at 21-day interval",7 dogs
same,likelihood of toxicosis after second dose in dogs with signs after first dose,"[3]; dog, in vivo",17.2 times
same,CIBDAI D. Stool consistency,[4]; Post Adria 1,D.0
same,CIBDAI D. Stool consistency,[4]; Post Adria 2,D.0
same,CIBDAI D. Stool consistency,[4]; Pre Adria 2,D.0
same,CIBDAI D. Stool consistency,[5]; Post Adria 1,D.3 and D.1 and D.2
same,CIBDAI D. Stool consistency,[5]; Post Adria 2,D.2 and D.3
same,CIBDAI D. Stool consistency,[5]; Pre Adria 2,D.1
CN(C)C(=O)C(CCN1CCC(O)(c2ccc(Cl)cc2)CC1)(c1ccccc1)c1ccccc1 [loperamide],prevalence of grade ¾ diarrhea,[6],9%
same,resolution of diarrhea by day three,[7],15%
C[C@@H](O)[C@@H]1NC(=O)[C@H](CCCCN)NC(=O)[C@@H](Cc2c[nH]c3ccccc23)NC(=O)[C@H](Cc2ccccc2)NC(=O)[C@@H](NC(=O)[C@H](N)Cc2ccccc2)CSSC[C@@H](C(=O)N[C@H](CO)[C@@H](C)O)NC1=O [octreotide],resolution of diarrhea by day three,[7],90%
calcium aluminosilicate [CASAD],1 = interaction 0 = noninteraction,[8],0
same,dogs with interaction,[8],0
same,"negative interactions (anorexia, vomiting, nausea, lethargy, anaphylaxis) with additional drugs",[8],No negative interactions
calcium montmorillonite clay,Al in the brain (ICP-MS),[9],< 0.5 ppm
same,brain Rb,[9],decreased brain Rb
